# From patent US20150209379A1, “TREATMENT OF PROSTATE CANCER AND HEMATOLOGIC NEOPLASMS” (THOMAS JEFFERSON UNIVERSITY, priority 2012, published 2015)
# Key:
# [1] = system: KCL22R imatinib-resistant human chronic myeloid leukemia cells; assay: Cell viability, MTS assay, KCL22R imatinib-resistant chronic myeloid leukemia cells; assay type: cell-based; conditions: 72 h, 3.1, 6.3, 12.5, 25 and 50 μM, vs control compound C5
# Protocol: (§1) Exponentially growing KCL22R imatinib-resistant human chronic myeloid leukemia cells were treated with Compound 1, Compound 2 or the control compound C5 for 72 h at 3.1, 6.3. 12.5, 25 and 50 μM concentrations. The cell viability was assessed by MTS (3-(4,5-dimethylthiazolyl-2)-2,5-diphenyl-tetrazolium bromide) metabolic activity assay (CellTiter 96® AQueous Assay kit).
# as §1, with “growing CWR22Rv1 prostate cancer cells, K562 leukemia cells and imatinib-sensitive KCL22S and imatinib-resistant” for “growing”, “KCL22R” for “KCL22R imatinib-resistant human”, “NBPP” for “Compound 1, Compound 2”
# [2] = system: Stat5a/b; assay: Constitutive Stat5a/b phosphorylation in imatinib-sensitive KCL22S cells (Western blot); assay type: cell-based, human
# Protocol: Exponentially growing KCL22S and KCL22R cells were treated with Compound 1 or Compound 2 at various concentrations for 3 h and 16 h (Compound 1) or 3 h, 6 h or 16 h (Compound 2) after which the cells were harvested. Cell pellets were solubilized in lysis buffer [10 mM Tris-HCl (pH 7.6), 5 mM EDTA, 50 mM sodium chloride, 30 mM sodium pyrophosphate, 50 mM sodium fluoride, 1 mM sodium orthovanadate, 1% Triton X-100, 1 mM phenylmethylsulfonyl fluoride, 5 μg/ml aprotinin, 1 μg/ml pepstatin A, and 2 μg/ml leupeptin], rotated end-over-end at 4° C. for 60 min, and insoluble material was pelleted at 12,000×g for 30 min at 4° C. The protein concentrations of clarified cell lysates were determined by simplified Bradford method (Bio-Rad Laboratories, Hercules, Calif.). Western blotting of the lysates was carried out using, as primary antibodies, the following antibodies at the following concentrations: anti-phosphotyrosine-Stat5a/b (Y694/Y699) mAb (1 μg/ml, Advantex BioReagents, Conroe, Tex.), anti-Stat5ab mAb (1:250; BD Biosciences, San Jose, Calif.) or anti-actin pAb (Sigma). Anti-actin was included as a control.
# Exponentially growing K562 cells were treated with NBPP for 3 h or 6 h after which the cells were harvested. Exponentially growing K562 cells or imatinib-resistant K562 cells were treated with NBPP for 6 h or 16 h after which the cells were harvested. Cell pellets were solubilized in lysis buffer [10 mM Tris-HCl (pH 7.6), 5 mM EDTA, 50 mM sodium chloride, 30 mM sodium pyrophosphate, 50 mM sodium fluoride, 1 mM sodium orthovanadate, 1% Triton X-100, 1 mM phenylmethylsulfonyl fluoride, 5 μg/ml aprotinin, 1 μg/ml pepstatin A, and 2 μg/ml leupeptin], rotated end-over-end at 4° C. for 60 min, and insoluble material was pelleted at 12,000×g for 30 min at 4° C. The protein concentrations of clarified cell lysates were determined by simplified Bradford method (Bio-Rad Laboratories, Hercules, Calif.). […]
# [3] = target: T1, Stat5b (Homo sapiens, UniProt P51692); assay: Stat5b transcriptional activity, beta-casein promoter luciferase reporter gene assay in PC-3 cells; assay type: cell-based; conditions: varying concentration
# T1 construct: expressed in transfected cells; host or cells: PC-3 human prostate cancer cells
# T1 sequence (P51692 1-787): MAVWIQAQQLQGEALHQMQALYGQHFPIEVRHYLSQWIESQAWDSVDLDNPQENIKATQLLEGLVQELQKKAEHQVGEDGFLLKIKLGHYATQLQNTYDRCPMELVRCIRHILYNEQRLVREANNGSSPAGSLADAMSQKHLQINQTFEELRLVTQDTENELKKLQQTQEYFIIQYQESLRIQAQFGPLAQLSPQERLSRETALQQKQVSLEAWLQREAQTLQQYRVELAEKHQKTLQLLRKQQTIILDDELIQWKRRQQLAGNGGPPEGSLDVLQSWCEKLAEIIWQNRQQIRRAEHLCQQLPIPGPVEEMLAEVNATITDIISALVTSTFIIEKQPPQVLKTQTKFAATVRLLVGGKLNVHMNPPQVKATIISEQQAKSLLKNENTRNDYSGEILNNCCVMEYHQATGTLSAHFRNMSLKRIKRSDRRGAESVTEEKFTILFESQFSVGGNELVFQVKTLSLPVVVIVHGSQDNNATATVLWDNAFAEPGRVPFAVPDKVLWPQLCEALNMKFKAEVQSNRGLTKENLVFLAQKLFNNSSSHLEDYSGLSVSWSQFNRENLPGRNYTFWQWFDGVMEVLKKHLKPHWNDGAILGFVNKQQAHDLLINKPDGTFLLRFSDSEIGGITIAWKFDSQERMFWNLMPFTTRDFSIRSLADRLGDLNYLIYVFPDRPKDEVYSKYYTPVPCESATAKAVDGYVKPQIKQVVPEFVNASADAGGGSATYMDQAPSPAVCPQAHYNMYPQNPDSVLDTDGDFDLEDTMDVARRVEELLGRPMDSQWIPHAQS
# Protocol: Cells of the human prostate cell line PC-3 were plated into 96-well plate at the density of 2×10^5 per well. After 24 hours of plating, cells were transiently co-transfected using FuGENE6 (Roche) with 0.25 μg of each of pStat5a or pStat5b, pPrlR (prolactin receptor) plasmids, 0.5 μg of pBeta-casein-luc and 0.025 μg of pRL-TK (Renilla luciferase) plasmids as an internal control. After another 24 hours of transfection, the cells were starved in serum-free medium for 8 hours, pretreated with N^6-benzyladenosine (“N6BA”), or the control compound C5, for 1 hour, and then stimulated with 10 nM human prolactin (hPrl) in the serum-free medium for additional 16 hours. The lysates were assayed for firefly and Renilla luciferase activities using the Dual-Luciferase reporter assay system (Promega). Three independent experiments were carried out in triplicate. The firefly luciferase activity was normalized to the Renilla luciferase activity of the same sample, and the mean was calculated from the parallels. From the mean values of each independent run, the overall mean and its standard deviation (S.D.) were calculated.
# [4] = KCL22S, various concentrations, 3 h and 16 h (Compound 1) or 3 h, 6 h or 16 h (Compound 2)
Compound,number of viable cells [1],"effect on phosphorylation of Stat5 [2, 4]",effect on transcriptional activity of Stat5b [3],"effect on phosphorylation of Stat5 ([2]; KCL22S imatinib-sensitive, 6 h or 16 h)"
"OC[C@H]1O[C@@H](n2cnc3c(N4CCc5ccccc5C4)ncnc32)[C@H](O)[C@@H]1O [Compound 1, (2R,3R,4S,5R)-2-(6-(3,4-Dihydroisoquinolin-2(1H)-yl)-9H-purin-9-yl)-5-(hydroxymethyl)tetrahydrofuran-3,4-diol]",decreased the number of viable leukemic cancer cells compared to the control compound,block phosphorylation of Stat5,inhibited Stat5a and Stat5b transcriptional activity in a concentration-dependent manner,
"OC[C@H]1O[C@@H](n2cnc3c(NNc4ccccc4)ncnc32)[C@H](O)[C@@H]1O [Compound 2, (2R,3S,4R,5R)-2-(hydroxymethyl)-5-(6-(2-phenylhydrazinyl)-9H-purin-9-yl)tetrahydrofuran-3,4-diol]",decreased the number of viable leukemic cancer cells compared to the control compound,block phosphorylation of Stat5,inhibited Stat5a and Stat5b transcriptional activity in a concentration-dependent manner,
"OC[C@H]1O[C@@H](n2cnc3c(NCc4ccccc4)ncnc32)[C@H](O)[C@@H]1O [Compound N6BA, N^6-benzyladenosine]",,,inhibited Stat5 transcriptional activity in a concentration-dependent manner,
"OC[C@H]1O[C@@H](n2ccc3c(NCc4ccccc4)ncnc32)[C@H](O)[C@@H]1O [NBPP, N-(phenylmethyl)-7-β-D-ribofuranosyl-7H-pyrrolo[2,3-d]pyrimidin-4-amine]",decreased the number of viable KCL22R cells,,,inhibits phosphorylation of Stat5
